One experiment has as its system DLD1 BRCA2 (−/−) cells. In words: 7-day cell viability assay (CellTiter-Glo), DLD1 BRCA2 (−/−). The format is cell-based, human. Conditions: Homo sapiens, DLD-1, 168 h, 7-day CellTiter-Glo, n=2, read-out: Viability IC50 (uM) DLD1 BRCA2 null. Summed up: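 7-day growth assay in DLD1 cells with or without BRCA2; seeding densities chosen to keep log-linear growth. Compound: 10 uM top, 3-fold, 9 points. Endpoint: CTG ATP luminescence at RT.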
(In general: ATP-based viability assays read luminescence as a measure of living cells.)

A further experiment deals with DLD1 WT cells. In words: 7-day cell viability assay (CellTiter-Glo), DLD1 parental (WT). The format is cell-based, human. To be noted: Homo sapiens, DLD-1, 168 h, 7-day CellTiter-Glo, n=2.

A word on the IC50: it is the concentration at which inhibition is half-maximal. Regarding `COc1nnc(Cl)cc1-c1cc(C)ncc1C(=O)Nc1nc2c(s1)CN(C(=O)c1ccc(C#N)c(C)n1)C2` [Example 981, 4-(6-chloro-3-methoxypyridazin-4-yl)-N-(5-(5-cyano-6-methylpicolinoyl)-5,6-dihydro-4H-pyrrolo[3,4-d]thiazol-2-yl)-6-methylnicotinamide], the IC50 is 0.001 to 0.1 µM with DLD1 BRCA2 (−/−) cells and at least 10 µM with DLD1 WT cells.
For `COc1cnc(Cl)cc1-c1cc(C)ncc1C(=O)Nc1nc2c(s1)CN(C(=O)c1ccc(OC(F)F)nc1OC)C2` [Example 985, 2′-chloro-N-(5-(6-(difluoromethoxy)-2-methoxynicotinoyl)-5,6-dihydro-4H-pyrrolo[3,4-d]thiazol-2-yl)-5′-methoxy-6-methyl-[4,4′-bipyridine]-3-carboxamide], in that order: 0.001 to 0.1 µM and at least 10 µM.
As to `COc1cnc(Cl)cc1-c1cc(C)ncc1C(=O)Nc1nc2c(s1)CN(C(=O)c1cnc(C(F)(F)F)c(OC)n1)C2` [Example 986, 2′-chloro-5′-methoxy-N-(5-(6-methoxy-5-(trifluoromethyl)pyrazine-2-carbonyl)-5,6-dihydro-4H-pyrrolo[3,4-d]thiazol-2-yl)-6-methyl-[4,4′-bipyridine]-3-carboxamide], the IC50 in the experiment with DLD1 BRCA2 (−/−) cells was 0.001 to 0.1 µM; in the experiment on DLD1 WT cells it was at least 10 µM.
For `COc1cnc(Cl)cc1-c1cc(C)ncc1C(=O)Nc1nc2c(s1)CN(C(=O)c1nc(OC)c(C(F)(F)F)cc1C)C2` [Example 987, 2′-chloro-5′-methoxy-N-(5-(6-methoxy-3-methyl-5-(trifluoromethyl)picolinoyl)-5,6-dihydro-4H-pyrrolo[3,4-d]thiazol-2-yl)-6-methyl-[4,4′-bipyridine]-3-carboxamide], in that order: 0.001 to 0.1 µM and at least 10 µM.
Regarding `COc1cnc(Cl)cc1-c1cc(C)ncc1C(=O)Nc1nc2c(s1)CN(C(=O)c1cc(C)c(C(F)(F)F)nc1OC)C2` [Example 989, 2′-chloro-5′-methoxy-N-(5-(2-methoxy-5-methyl-6-(trifluoromethyl)nicotinoyl)-5,6-dihydro-4H-pyrrolo[3,4-d]thiazol-2-yl)-6-methyl-[4,4′-bipyridine]-3-carboxamide], the IC50 in the experiment on DLD1 BRCA2 (−/−) cells is 0.001 to 0.1 µM; in the experiment on DLD1 WT cells it was at least 10 µM.
For `COc1cnc(Cl)cc1-c1cc(C)ncc1C(=O)Nc1nc2c(s1)CN(C(=O)c1cnc(OC(F)F)c(C)n1)C2` [Example 990, 2′-chloro-N-(5-(5-(difluoromethoxy)-6-methylpyrazine-2-carbonyl)-5,6-dihydro-4H-pyrrolo[3,4-d]thiazol-2-yl)-5′-methoxy-6-methyl-[4,4′-bipyridine]-3-carboxamide], in that order: 0.001 to 0.1 µM and at least 10 µM.
As for `COc1ncc(C(F)(F)F)c(C(=O)N2Cc3nc(NC(=O)c4cnc(C)cc4-c4cc(Cl)ncc4OC)sc3C2)n1` [Example 994, 2′-chloro-5′-methoxy-N-(5-(2-methoxy-5-(trifluoromethyl)pyrimidine-4-carbonyl)-5,6-dihydro-4H-pyrrolo[3,4-d]thiazol-2-yl)-6-methyl-[4,4′-bipyridine]-3-carboxamide], the IC50 in the experiment with DLD1 BRCA2 (−/−) cells is 0.001 to 0.1 µM; in the experiment with DLD1 WT cells, at least 10 µM.
On the same counts, the results for `COc1cnc(Cl)cc1-c1cc(C)ncc1C(=O)Nc1nc2c(s1)CN(C(=O)c1ccc(OC(F)(F)F)c(C)n1)C2` [Example 995, 2′-chloro-5′-methoxy-6-methyl-N-(5-(6-methyl-5-(trifluoromethoxy)picolinoyl)-5,6-dihydro-4H-pyrrolo[3,4-d]thiazol-2-yl)-[4,4′-bipyridine]-3-carboxamide] are 0.001 to 0.1 µM and at least 10 µM.
On the same counts, the results for `COc1nc(C(F)(F)F)ccc1C(=O)N1Cc2nc(NC(=O)c3cnc(C)cc3-c3cc(Cl)nnc3OC)sc2C1` [Example 996, 4-(6-chloro-3-methoxypyridazin-4-yl)-N-(5-(2-methoxy-6-(trifluoromethyl)nicotinoyl)-5,6-dihydro-4H-pyrrolo[3,4-d]thiazol-2-yl)-6-methylnicotinamide] are 0.001 to 0.1 µM and at least 10 µM.
For `COc1cnc(Cl)cc1-c1cc(C)ncc1C(=O)Nc1nc2c(s1)CN(C(=O)c1ccc(OC(F)(F)F)c(Cl)n1)C2` [Example 997], in that order: 0.001 to 0.1 µM and at least 10 µM.
For `COc1cnc(Cl)cc1-c1cc(C)ncc1C(=O)Nc1nc2c(s1)CN(C(=O)c1nc(C)cc(C(F)(F)F)c1C)C2` [Example 999, 2′-chloro-N-(5-(3,6-dimethyl-4-(trifluoromethyl)picolinoyl)-5,6-dihydro-4H-pyrrolo[3,4-d]thiazol-2-yl)-5′-methoxy-6-methyl-[4,4′-bipyridine]-3-carboxamide], the figures for the IC50 in the experiment with DLD1 BRCA2 (−/−) cells and in the experiment on DLD1 WT cells were 0.001 to 0.1 µM and at least 10 µM, respectively.
For `COc1nc(C(F)(F)F)ccc1C(=O)N1Cc2nc(NC(=O)c3cnc(C)cc3-c3cc(Cl)cnc3OC)sc2C1` [Example 1003, 5-chloro-2-methoxy-N-(5-(2-methoxy-6-(trifluoromethyl)nicotinoyl)-5,6-dihydro-4H-pyrrolo[3,4-d]thiazol-2-yl)-6′-methyl-[3,4′-bipyridine]-3′-carboxamide], in that order: 0.001 to 0.1 µM and at least 10 µM.
For `COc1cn2cncc2cc1-c1cc(C)ncc1C(=O)Nc1nc2c(s1)CN(C(=O)c1ccc(C(F)(F)F)nc1OC)C2` [Example 1004], in that order: 0.001 to 0.1 µM and at least 10 µM.
For `COc1ccc(C#N)cc1-c1cc(C)ncc1C(=O)Nc1nc2c(s1)CN(C(=O)c1ccc(C(F)(F)F)nc1OC)C2` [Example 1005, 4-(5-cyano-2-methoxyphenyl)-N-(5-(2-methoxy-6-(trifluoromethyl)nicotinoyl)-5,6-dihydro-4H-pyrrolo[3,4-d]thiazol-2-yl)-6-methylnicotinamide], in that order: 0.001 to 0.1 µM and at least 10 µM.
Turning to `COc1cnc(Cl)cc1-c1cc(C)ncc1C(=O)Nc1nc2c(s1)CN(C(=O)c1nc(C)c(C#N)cc1F)C2` [Example 1006, 2′-chloro-N-(5-(5-cyano-3-fluoro-6-methylpicolinoyl)-5,6-dihydro-4H-pyrrolo[3,4-d]thiazol-2-yl)-5′-methoxy-6-methyl-[4,4′-bipyridine]-3-carboxamide], the values for the IC50 with DLD1 BRCA2 (−/−) cells and in the experiment on DLD1 WT cells were 0.001 to 0.1 µM and at least 10 µM, respectively.
As for `COc1cnc(Cl)cc1-c1cc(C)ncc1C(=O)Nc1nc2c(s1)CN(C(=O)c1ncc(OC(F)(F)F)cc1C)C2` [Example 1007, 2′-chloro-5′-methoxy-6-methyl-N-(5-(3-methyl-5-(trifluoromethoxy)picolinoyl)-5,6-dihydro-4H-pyrrolo[3,4-d]thiazol-2-yl)-[4,4′-bipyridine]-3-carboxamide], the IC50 with DLD1 BRCA2 (−/−) cells is 0.001 to 0.1 µM; with DLD1 WT cells, at least 10 µM.
Take `COc1cnc(Cl)cc1-c1cc(C)ncc1C(=O)Nc1nc2c(s1)CN(C(=O)c1ccc(OC(F)F)c(C)n1)C2` [Example 1008, 2′-chloro-N-(5-(5-(difluoromethoxy)-6-methylpicolinoyl)-5,6-dihydro-4H-pyrrolo[3,4-d]thiazol-2-yl)-5′-methoxy-6-methyl-[4,4′-bipyridine]-3-carboxamide]: the IC50 was 0.001 to 0.1 µM in the experiment with DLD1 BRCA2 (−/−) cells and at least 10 µM in the experiment on DLD1 WT cells.
On the same counts, the results for `COc1cnc(Cl)cc1-c1cc(C)ncc1C(=O)Nc1nc2c(s1)CN(C(=O)c1cnc(OC(F)(F)F)cc1C)C2` [Example 1009, 2′-chloro-5′-methoxy-6-methyl-N-(5-(4-methyl-6-(trifluoromethoxy)nicotinoyl)-5,6-dihydro-4H-pyrrolo[3,4-d]thiazol-2-yl)-[4,4′-bipyridine]-3-carboxamide] are 0.001 to 0.1 µM and at least 10 µM.
Take `COc1cc2c(cnn2C)cc1-c1cc(C)ncc1C(=O)Nc1nc2c(s1)CN(C(=O)c1ccc(C(F)(F)F)nc1OC)C2` [Example 1010, 4-(6-methoxy-1-methyl-1H-indazol-S-yl)-N-(5-(2-methoxy-6-(trifluoromethyl)nicotinoyl)-5,6-dihydro-4H-pyrrolo[3,4-d]thiazol-2-yl)-6-methylnicotinamide]: the IC50 with DLD1 BRCA2 (−/−) cells was 0.001 to 0.1 µM; with DLD1 WT cells, at least 10 µM.
Turning to `COc1cnc(Cl)cc1-c1cc(C)ncc1C(=O)Nc1nc2c(s1)CN(C(=O)c1ncc(C)c(C(F)(F)F)c1C)C2` [Example 1011, 2′-chloro-N-(5-(3,5-dimethyl-4-(trifluoromethyl)picolinoyl)-5,6-dihydro-4H-pyrrolo[3,4-d]thiazol-2-yl)-5′-methoxy-6-methyl-[4,4′-bipyridine]-3-carboxamide], the results for the IC50 in the experiment on DLD1 BRCA2 (−/−) cells and with DLD1 WT cells were 0.001 to 0.1 µM and at least 10 µM, respectively.
On the same counts, the results for `COc1cnc(Cl)cc1-c1cc(C)ncc1C(=O)Nc1nc2c(s1)CN(C(=O)c1nc(C(F)(F)F)c(C)cc1C)C2` [Example 1012, 2′-chloro-N-(5-(3,5-dimethyl-6-(trifluoromethyl)picolinoyl)-5,6-dihydro-4H-pyrrolo[3,4-d]thiazol-2-yl)-5′-methoxy-6-methyl-[4,4′-bipyridine]-3-carboxamide] are 0.001 to 0.1 µM and at least 10 µM.
On to `COc1cccc(F)c1-c1cc(C)ncc1C(=O)Nc1nc2c(s1)CN(C(=O)c1ccc(C(F)(F)F)nc1OC)C2` [Example 1013, 4-(2-fluoro-6-methoxyphenyl)-N-(5-(2-methoxy-6-(trifluoromethyl)nicotinoyl)-5,6-dihydro-4H-pyrrolo[3,4-d]thiazol-2-yl)-6-methylnicotinamide], for which the IC50 in the experiment on DLD1 BRCA2 (−/−) cells was 0.001 to 0.1 µM; in the experiment on DLD1 WT cells, at least 10 µM.
In the case of `COc1cnc(Cl)cc1-c1cc(C)ncc1C(=O)Nc1nc2c(s1)CN(C(=O)c1nc(C)c(C(F)(F)F)cc1F)C2` [Example 1014, 2′-chloro-N-(5-(3-fluoro-6-methyl-5-(trifluoromethyl)picolinoyl)-5,6-dihydro-4H-pyrrolo[3,4-d]thiazol-2-yl)-5′-methoxy-6-methyl-[4,4′-bipyridine]-3-carboxamide], the IC50 was 0.001 to 0.1 µM with DLD1 BRCA2 (−/−) cells and at least 10 µM with DLD1 WT cells.

For the origin of these results see patent US20250230171A1 (MOMA Therapeutics, Inc., priority 2023, published 2025).
